Laboratory results: publication PMC8445441, “Elucidating the mechanism by which synthetic helper peptides sensitize Pseudomonas aeruginosa to multiple antibiotics” (PLoS Pathogens, 2021)
Where two headings read alike, the source gives them in different places.

Legend:
P. aeruginosa PAO1 = experiment: microbe, parasite or virus in culture; details: PAO1; for MIC: Pseudomonas aeruginosa, PAO1, 18 h
In short: (§1)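 Triplicate microdilution MICs: MHB, two-fold series, equal-volume inoculum from ~1 × 10^6 CFU/mL suspension, 37 °C, 18 h, lowest concentration lacking visible growth.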

P. aeruginosa AUMC-Pa-4 = experiment: microbe, parasite or virus in culture; details: strain AUMC-Pa-4; for FICI: antibiotic + D-11 (MICb/MICbc 128/4); for MICa: MIC of the antibiotic: antibiotic alone; for MICa: MIC of the antibiotic / MICac: MIC of the antibiotic in the combination: unit not given; for MICac: MIC of the antibiotic in the combination: with D-11 at MICbc 4
In short: as §1

P. aeruginosa AUMC-Pa-3 = experiment: microbe, parasite or virus in culture; details: for FICI: antibiotic + D-11 (MICb/MICbc 128/4); for MICac: MIC of the antibiotic in the combination: with D-11 at MICbc 4
In short: as §1

P. aeruginosa AUMC-Pa-6 = experiment: microbe, parasite or virus in culture; details: strain AUMC-Pa-6; for FICI: antibiotic + D-11 (MICb/MICbc 64/4); for MICa: MIC of the antibiotic: antibiotic alone; for MICa: MIC of the antibiotic / MICac: MIC of the antibiotic in the combination: unit not given; for MICac: MIC of the antibiotic in the combination: with D-11 at MICbc 4
In short: as §1

P. aeruginosa AUMC-Pa-5 = experiment: microbe, parasite or virus in culture; details: for FICI: antibiotic + D-11 (MICb/MICbc 64/4); for MICac: MIC of the antibiotic in the combination: with D-11 at MICbc 4
In short: as §1

[1] = tested on: clinical P. aeruginosa isolates; experiment: microbe, parasite or virus in culture; details: Pseudomonas aeruginosa, 18 h, antibiotic alone
In short: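 MIC is the lowest drug concentration showing no visible growth after 18 h at 37 °C. Two-fold dilutions in MHB were combined with an equal volume of bacterial suspension (about 1 × 10^6 CFU/mL), following CLSI broth microdilution, in triplicate.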

P. aeruginosa AUMC-Pa-2 = details: strain AUMC-Pa-2; antibiotic + D-11 (MICb/MICbc 64/4)
Procedure: (§2) The MIC tests were performed in triplicate using broth microdilution in accordance with Clinical and Laboratory Standards Institute (CLSI) recommendations (http://iacld.ir/DL/public/CLSI-2018-M100-S28.pdf). Briefly, drugs were two-fold diluted in MHB and mixed with an equal volume of bacterial suspensions containing approximately 1 × 10^6 CFU/mL in 96-well microliter plate. After 18 h incubation at 37 °C, the MIC values were defined as the lowest concentrations of antibiotics with no visible growth of bacteria. […] Otherwise, 1/4 MIC of the peptide was used in the combination. […] If needed, membrane compounds PG, PE, PC, CL or LPS, or membrane stabilizers MgCl2 or CaCl2, or efflux pumps inhibitor PAβN were added to the broth medium to clarify the effect of other substances on the synergy between peptide and antibiotics. All the tests were performed in triplicate.
(§3) The fractional inhibitory concentration (FIC) indices were calculated using the previously described formula FICI = FICa + FICb = MICac/MICa + MICbc/MICb. The FICI was interpreted according to EUCAST [65] as follows: synergistic, FICI≤0.5; additive, 0.5<FICI≤1; indifferent, 1<FICI<2; antagonistic, FICI ≥2. For the FICI calculations, twice the highest concentration tested was used in the cases where the MIC was not reached.

P. aeruginosa AUMC-Pa-1 = details: strain AUMC-Pa-1; antibiotic + D-11 (MICb/MICbc 128/4)
Procedure: as §2, §3

P. aeruginosa HM-214 = details: strain HM-214; antibiotic + D-11 (MICb/MICbc 128/4)
Procedure: as §2, §3

P. aeruginosa NR-31040 = experiment: microbe, parasite or virus in culture; set-up: MICa: MIC of the antibiotic / MICac: MIC of the antibiotic in the combination: unit not given beside the values; details: strain NR-31040; for FICI: antibiotic + D-11 (MICb/MICbc 128/4); for MICa: MIC of the antibiotic: antibiotic alone; for MICa: MIC of the antibiotic / MICac: MIC of the antibiotic in the combination: unit not given; for MICac: MIC of the antibiotic in the combination: with D-11 at MICbc 4
Procedure: as §2, §3

P. aeruginosa NR-31041 = experiment: microbe, parasite or virus in culture; set-up: MICa: MIC of the antibiotic / MICac: MIC of the antibiotic in the combination: unit not given beside the values; details: strain NR-31041; for FICI: antibiotic + D-11 (MICb/MICbc 64/4); for MICa: MIC of the antibiotic: antibiotic alone; for MICa: MIC of the antibiotic / MICac: MIC of the antibiotic in the combination: unit not given; for MICac: MIC of the antibiotic in the combination: with D-11 at MICbc 4
Procedure: as §2, §3

P. aeruginosa PAK = experiment: microbe, parasite or virus in culture; set-up: MICa: MIC of the antibiotic / MICac: MIC of the antibiotic in the combination: unit not given beside the values; details: strain PAK; for FICI: antibiotic + D-11 (MICb/MICbc 64/4); for MICa: MIC of the antibiotic: antibiotic alone; for MICa: MIC of the antibiotic / MICac: MIC of the antibiotic in the combination: unit not given; for MICac: MIC of the antibiotic in the combination: with D-11 at MICbc 4
Procedure: as §2, §3

P. aeruginosa ATCC27853 = experiment: microbe, parasite or virus in culture; set-up: MICa: MIC of the antibiotic / MICac: MIC of the antibiotic in the combination: unit not given beside the values; details: strain ATCC27853; for FICI: antibiotic + D-11 (MICb/MICbc 32/4); for MICa: MIC of the antibiotic: antibiotic alone; for MICa: MIC of the antibiotic / MICac: MIC of the antibiotic in the combination: unit not given; for MICac: MIC of the antibiotic in the combination: with D-11 at MICbc 4
Procedure: as §2, §3

P. aeruginosa PA14 = experiment: microbe, parasite or virus in culture; set-up: MICa: MIC of the antibiotic / MICac: MIC of the antibiotic in the combination: unit not given beside the values; details: strain PA14; for FICI: antibiotic + D-11 (MICb/MICbc 128/4); for MICa: MIC of the antibiotic: antibiotic alone; for MICa: MIC of the antibiotic / MICac: MIC of the antibiotic in the combination: unit not given; for MICac: MIC of the antibiotic in the combination: with D-11 at MICbc 4
Procedure: as §2, §3

[2] = strain AUMC-Pa-3, unit not given
[3] = strain AUMC-Pa-5, unit not given
[4] = read-out: Antibiotic sensibility (MIC) of clinical P. aeruginosa isolate AUMC-Pa-1, strain AUMC-Pa-1
[5] = read-out: Antibiotic sensibility (MIC) of clinical P. aeruginosa isolate AUMC-Pa-2, strain AUMC-Pa-2
[6] = read-out: Antibiotic sensibility (MIC) of clinical P. aeruginosa isolate AUMC-Pa-3, strain AUMC-Pa-3
[7] = read-out: Antibiotic sensibility (MIC) of clinical P. aeruginosa isolate AUMC-Pa-4, strain AUMC-Pa-4
[8] = read-out: Antibiotic sensibility (MIC) of clinical P. aeruginosa isolate AUMC-Pa-5, strain AUMC-Pa-5
[9] = read-out: Antibiotic sensibility (MIC) of clinical P. aeruginosa isolate AUMC-Pa-6, strain AUMC-Pa-6
[10] = read-out: Antibiotic sensibility (MIC) of clinical P. aeruginosa isolate HM-214, strain HM-214
[11] = read-out: Antibiotic sensibility (MIC) of clinical P. aeruginosa isolate NR-31040, strain NR-31040
[12] = read-out: Antibiotic sensibility (MIC) of clinical P. aeruginosa isolate NR-31041, strain NR-31041

CC[C@H]1OC(=O)[C@H](C)C(=O)[C@H](C)[C@@H](O[C@@H]2O[C@H](C)C[C@H](N(C)C)[C@H]2O)[C@](C)(OC)C[C@@H](C)C(=O)[C@H](C)[C@H]2N(CCCCn3cnc(-c4cccnc4)c3)C(=O)O[C@]12C [Telithromycin]
MIC (P. aeruginosa PAO1; read-out: MICa: the MIC of antibiotics, S1 Table, macrolide alone): 64 µM
FICI (P. aeruginosa AUMC-Pa-4): 0.531
MICa: MIC of the antibiotic (P. aeruginosa AUMC-Pa-4): 64
MICac: MIC of the antibiotic in the combination (P. aeruginosa AUMC-Pa-4): 32
FICI (P. aeruginosa AUMC-Pa-3; strain AUMC-Pa-3): 0.063
MICa: MIC of the antibiotic (P. aeruginosa AUMC-Pa-3; strain AUMC-Pa-3, antibiotic alone, unit not given): 64
MICac: MIC of the antibiotic in the combination (P. aeruginosa AUMC-Pa-3; [2]): 2
FICI (P. aeruginosa AUMC-Pa-6): 0.563
MICa: MIC of the antibiotic (P. aeruginosa AUMC-Pa-6): 64
MICac: MIC of the antibiotic in the combination (P. aeruginosa AUMC-Pa-6): 32
FICI (P. aeruginosa AUMC-Pa-5; strain AUMC-Pa-5): 0.563
MICa: MIC of the antibiotic (P. aeruginosa AUMC-Pa-5; strain AUMC-Pa-5, antibiotic alone, unit not given): 64
MICac: MIC of the antibiotic in the combination (P. aeruginosa AUMC-Pa-5; [3]): 32
MIC [1, 4]: 128 µM
MIC [1, 5]: 64 µM
MIC [1, 6]: 64 µM
MIC [1, 7]: 64 µM
MIC [1, 8]: 64 µM
MIC [1, 9]: 64 µM
MIC [1, 10]: 128 µM
MIC [1, 11]: 128 µM
MIC [1, 12]: 128 µM
FICI (P. aeruginosa AUMC-Pa-2): 0.313
FICI (P. aeruginosa AUMC-Pa-1): 0.156
FICI (P. aeruginosa HM-214): 0.156
FICI (P. aeruginosa NR-31040): 0.531
MICa: MIC of the antibiotic (P. aeruginosa NR-31040): 128
MICac: MIC of the antibiotic in the combination (P. aeruginosa NR-31040): 64
FICI (P. aeruginosa NR-31041): 0.188
MICa: MIC of the antibiotic (P. aeruginosa NR-31041): 128
MICac: MIC of the antibiotic in the combination (P. aeruginosa NR-31041): 16
FICI (P. aeruginosa PAK): 0.313
MICa: MIC of the antibiotic (P. aeruginosa PAK): 64
MICac: MIC of the antibiotic in the combination (P. aeruginosa PAK): 16
FICI (P. aeruginosa ATCC27853): 0.250
MICa: MIC of the antibiotic (P. aeruginosa ATCC27853): 64
MICac: MIC of the antibiotic in the combination (P. aeruginosa ATCC27853): 8
FICI (P. aeruginosa PA14): 0.281
MICa: MIC of the antibiotic (P. aeruginosa PA14): 64
MICac: MIC of the antibiotic in the combination (P. aeruginosa PA14): 16

C[C@@H](O)[C@H]1C(=O)N2C(C(=O)O)=C(S[C@@H]3CN[C@H](C(=O)N(C)C)C3)[C@H](C)[C@H]12 [Meropenem]
MIC (P. aeruginosa PAO1; read-out: MICa: the MIC of antibiotics, S3 Table, antibiotic alone): 2 µM
FICI (P. aeruginosa PAO1; S3 Table, antibiotic + 4 μM D-11): 0.375
MICac: the MIC for the antibiotic in the combination (P. aeruginosa PAO1; S3 Table, with 2 μM D-11): 1 µM
MICac: the MIC for the antibiotic in the combination (P. aeruginosa PAO1; S3 Table, with 4 μM D-11): 0.5 µM
FICI (P. aeruginosa AUMC-Pa-4): 1.031
MICa: MIC of the antibiotic (P. aeruginosa AUMC-Pa-4): 2/2
MICac: MIC of the antibiotic in the combination (P. aeruginosa AUMC-Pa-4): 2/2
MIC (P. aeruginosa AUMC-Pa-3; Pseudomonas aeruginosa, AUMCPA3, 18 h, read-out: MICa: MIC of the antibiotic): 0.25 µM
FICI (P. aeruginosa AUMC-Pa-3; strain AUMC-Pa-3): 1.031
MICac: MIC of the antibiotic in the combination (P. aeruginosa AUMC-Pa-3; [2]): 0.25/0.25
FICI (P. aeruginosa AUMC-Pa-6): 2.063
MICa: MIC of the antibiotic (P. aeruginosa AUMC-Pa-6): 2
MICac: MIC of the antibiotic in the combination (P. aeruginosa AUMC-Pa-6): 4
MIC (P. aeruginosa AUMC-Pa-5; Pseudomonas aeruginosa, AUMCPA5, 18 h, read-out: MICa: MIC of the antibiotic): 0.25 µM
FICI (P. aeruginosa AUMC-Pa-5; strain AUMC-Pa-5): 2.063
MICac: MIC of the antibiotic in the combination (P. aeruginosa AUMC-Pa-5; [3]): 0.5
MIC [1, 4]: 1 µM
MIC [1, 5]: 1 µM
MIC [1, 6]: 0.25 µM
MIC [1, 7]: 2 µM
MIC [1, 8]: 0.25 µM
MIC [1, 9]: 2 µM
MIC [1, 10]: 0.25 µM
MIC [1, 11]: 2 µM
MIC [1, 12]: 4 µM
FICI (P. aeruginosa AUMC-Pa-2): 2.063
FICI (P. aeruginosa AUMC-Pa-1): 1.031
FICI (P. aeruginosa HM-214): 1.031
FICI (P. aeruginosa NR-31040): 0.531
MICa: MIC of the antibiotic (P. aeruginosa NR-31040): 2
MICac: MIC of the antibiotic in the combination (P. aeruginosa NR-31040): 1
FICI (P. aeruginosa NR-31041): 0.563
MICa: MIC of the antibiotic (P. aeruginosa NR-31041): 4
MICac: MIC of the antibiotic in the combination (P. aeruginosa NR-31041): 2
FICI (P. aeruginosa PAK): 1.063
MICa: MIC of the antibiotic (P. aeruginosa PAK): 1/1
MICac: MIC of the antibiotic in the combination (P. aeruginosa PAK): 1/1
FICI (P. aeruginosa ATCC27853): 1.125
MICa: MIC of the antibiotic (P. aeruginosa ATCC27853): 1/1
MICac: MIC of the antibiotic in the combination (P. aeruginosa ATCC27853): 1/1
FICI (P. aeruginosa PA14): 1.031
MICa: MIC of the antibiotic (P. aeruginosa PA14): 2/2
MICac: MIC of the antibiotic in the combination (P. aeruginosa PA14): 2/2
